Measurements: ChEMBL document CHEMBL4334527, “Proline-Based Allosteric Inhibitors of Zika and Dengue Virus NS2B/NS3 Proteases” (J Med Chem, 2019)
Calls of active or inactive are those of the source. No cut-off for these calls is given here.

System: not listed separately
Test: (§1) Inhibition of N-terminal hexa-histidine tagged Dengue virus 2 NS2B/NS3 protease I30A/L31A mutant expressed in Escherichia coli BL21-Gold (DE3) using fluorogenic AMC-substituted peptide boc-GRR-7-amino-4-methylcoumarin measured every 30 secs for 10 mins by fluorometric assay
Set-up: species or system dengue virus type 2

SMILES | IC50 [µM]
Cc1ccc(S(=O)(=O)N2CCCC[C@@H]2C(=O)Nc2nc3cc(O)c(O)cc3s2)cc1 | 29
Cc1ccc(S(=O)(=O)NCC(=O)Nc2nc3cc(O)c(O)cc3s2)cc1 | 23
Cc1ccc(S(=O)(=O)N2CCC[C@@H]2C(=O)Nc2nc3cc(O)c(O)cc3s2)cc1 | 19.7
O=C(Nc1nc2cc(O)c(O)cc2s1)[C@@H]1CCCN1S(=O)(=O)c1ccc(-c2ccccc2)cc1 | 13.5
O=C(Nc1nc2cc(O)c(O)cc2s1)[C@H]1CCCN1S(=O)(=O)c1ccc([N+](=O)[O-])cc1 | 10
O=C(Nc1nc2cc(O)c(O)cc2s1)[C@H]1CCCN1S(=O)(=O)c1ccc(-c2ccccc2)cc1 | 10.9
Cc1ccc(S(=O)(=O)N2CCC[C@H]2C(=O)Nc2nc3cc(O)c(O)cc3s2)cc1 | 25.2
Cc1ccc(S(=O)(=O)Nc2ccccc2C(=O)Nc2nc3cc(O)c(O)cc3s2)cc1 | 15.3
Cc1ccc(S(=O)(=O)N2CCCC[C@H]2C(=O)Nc2nc3cc(O)c(O)cc3s2)cc1 | 13
O=C(Nc1nc2ccc([N+](=O)[O-])cc2s1)[C@H]1CCCN1C(=O)c1ccccc1 | 33.9
O=C(Nc1nc2cc(O)c(O)cc2s1)[C@@H]1CCCN1S(=O)(=O)c1ccc([N+](=O)[O-])cc1 | 8.58

Biological target: T1, Nonstructural protein 3 (Zika virus, UniProt A0A024AXB9)
T1 sequence (A0A024AXB9 whole entry): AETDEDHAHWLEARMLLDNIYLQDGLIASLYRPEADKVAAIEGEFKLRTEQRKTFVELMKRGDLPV
Test: Binding affinity to N-terminal hexa-histidine tagged Zika virus NS2B/NS3 protease expressed in Escherichia coli BL21-Gold (DE3) by microscale thermophoresis method

SMILES | Kd [µM]
Cc1ccc(S(=O)(=O)N2CCC[C@@H]2C(=O)Nc2nc3cc(O)c(O)cc3s2)cc1 | 0.49
Cc1ccc(S(=O)(=O)N2CCC[C@H]2C(=O)Nc2nc3cc(O)c(O)cc3s2)cc1 | 0.24

System: dengue virus type 2
Test: as §1, with “(DE3) at 20 uM” for “(DE3)”, “assay relative to control” for “assay”

SMILES | inhibition
O=C(Nc1nc2cc(O)c(O)cc2s1)[C@@H]1CCCN1S(=O)(=O)c1ccc(Cl)cc1 | 39%
CC(=O)Nc1ccc2cc(S(=O)(=O)N3CCC[C@@H]3C(=O)Nc3nc4cc(O)c(O)cc4s3)ccc2c1 | 18%
COc1cc2nc(NC(=O)C3CCCN3S(=O)(=O)c3ccc([N+](=O)[O-])cc3)sc2cc1OC (stereo not given) | inactive
COc1ccc(S(=O)(=O)N2CCC[C@H]2C(=O)Nc2nc3cc(O)c(O)cc3s2)cc1 | 36%
Cc1ccc(S(=O)(=O)N2CCC(C(=O)Nc3nc4cc(O)c(O)cc4s3)CC2)cc1 | 41%
O=C(Nc1nc2cc(O)c(O)cc2s1)[C@H]1CCCN1S(=O)(=O)c1ccc(Cl)cc1 | 34%
O=C(Nc1nc2cc(O)c(O)cc2s1)[C@@H]1CCCN1S(=O)(=O)c1cccc([N+](=O)[O-])c1 | 25%

System: dengue virus type 2
Test: Antiviral activity against Dengue virus 2 infected in African green monkey Vero cells assessed as suppression of viral replication at 3 uM pre-incubated with cells for 1 hr before viral infection and measured after 4 days by RT-qPCR analysis
Type: functional, organism-based

SMILES | Activity
O=C(Nc1nc2cc(O)c(O)cc2s1)[C@H]1CCCN1S(=O)(=O)c1ccc([N+](=O)[O-])cc1 | Active

System: Zika virus
Test: Antiviral activity against Zika virus Uganda infected in human A549 cells assessed as reduction in viral RNA at 5 uM measured after 24 to 72 hrs post infection by RT-qPCR analysis
Type: functional, organism-based

SMILES | Activity
Cc1ccc(S(=O)(=O)N2CCC[C@@H]2C(=O)Nc2nc3cc(O)c(O)cc3s2)cc1 | inactive
Cc1ccc(S(=O)(=O)N2CCC[C@H]2C(=O)Nc2nc3cc(O)c(O)cc3s2)cc1 | inactive

Biological target: Nonstructural protein 3 (Zika virus) (UniProt A0A024AXB9)
Sequence (A0A024AXB9 as listed by the source): as the sequence (A0A024AXB9 whole entry) above
Test: Inhibition of N-terminal hexa-histidine tagged Zika virus NS2B/NS3 protease expressed in Escherichia coli BL21-Gold (DE3) at 20 uM using fluorogenic AMC-substituted peptide boc-GRR-7-amino-4-methylcoumarin measured every 30 secs for 10 mins by fluorometric assay relative to control

SMILES | inhibition
COc1cc2nc(NC(=O)C3CCCN3S(=O)(=O)c3ccc([N+](=O)[O-])cc3)sc2cc1OC (stereo not given) | inactive

System: Zika virus
Test: Antiviral activity against Zika virus infected in African green monkey Vero cells assessed as suppression of viral replication at 10 uM pre-incubated with cells for 1 hr before viral infection and measured after 4 days by RT-qPCR analysis
Type: functional, organism-based

SMILES | Activity
Cc1ccc(S(=O)(=O)N2CCC[C@H]2C(=O)Nc2nc3cc(O)c(O)cc3s2)cc1 | inactive
O=C(Nc1nc2cc(O)c(O)cc2s1)[C@@H]1CCCN1S(=O)(=O)c1ccc([N+](=O)[O-])cc1 | inactive

System: Zika virus
Test: Antiviral activity against Zika virus infected in African green monkey Vero cells assessed as suppression of viral replication at 3 uM pre-incubated with cells for 1 hr before viral infection and measured after 4 days by RT-qPCR analysis
Type: functional, organism-based

SMILES | Activity
Cc1ccc(S(=O)(=O)N2CCC[C@@H]2C(=O)Nc2nc3cc(O)c(O)cc3s2)cc1 | inactive
O=C(Nc1nc2cc(O)c(O)cc2s1)[C@H]1CCCN1S(=O)(=O)c1ccc([N+](=O)[O-])cc1 | inactive

System: dengue virus type 2
Test: Antiviral activity against Dengue virus 2 infected in African green monkey Vero cells assessed as suppression of viral replication at 10 uM pre-incubated with cells for 1 hr before viral infection and measured after 4 days by RT-qPCR analysis
Type: functional, organism-based

SMILES | Activity
O=C(Nc1nc2cc(O)c(O)cc2s1)[C@@H]1CCCN1S(=O)(=O)c1ccc([N+](=O)[O-])cc1 | Active

System: Zika virus
Test: Antiviral activity against Zika virus French Polynesia infected in human A549 cells assessed as reduction in viral RNA at 5 uM measured after 24 to 72 hrs post infection by RT-qPCR analysis
Type: functional, organism-based

SMILES | Activity
Cc1ccc(S(=O)(=O)N2CCC[C@@H]2C(=O)Nc2nc3cc(O)c(O)cc3s2)cc1 | inactive
Cc1ccc(S(=O)(=O)N2CCC[C@H]2C(=O)Nc2nc3cc(O)c(O)cc3s2)cc1 | inactive

System: not listed separately
Test: Drug level in rat liver microsomes treated with (R)-N-(5,6-Dimethoxybenzo[d]thiazol-2-yl)-1-tosylpyrrolidine-2-carboxamide assessed as compound formation in presence of NADPH generating system by LC-MS/MS analysis
Type: ADME, Microsome

SMILES | Drug uptake
Cc1ccc(S(=O)(=O)N2CCC[C@@H]2C(=O)Nc2nc3cc(O)c(O)cc3s2)cc1 | Active
Cc1ccc(S(=O)(=O)N2CCC[C@H]2C(=O)Nc2nc3cc(O)c(O)cc3s2)cc1 | Active

Biological target: T1, Nonstructural protein 3
Test: (§2) Inhibition of N-terminal hexa-histidine tagged Zika virus NS2B/NS3 protease expressed in Escherichia coli BL21-Gold (DE3) using fluorogenic AMC-substituted peptide boc-GRR-7-amino-4-methylcoumarin measured every 30 secs for 10 mins by fluorometric assay

SMILES | IC50 [µM]
O=C(Nc1nc2cc(O)c(O)cc2s1)[C@@H]1CCCN1S(=O)(=O)c1ccc(Cl)cc1 | 0.93
Cc1ccc(S(=O)(=O)N2CCCC[C@@H]2C(=O)Nc2nc3cc(O)c(O)cc3s2)cc1 | 0.58
Cc1ccc(S(=O)(=O)NCC(=O)Nc2nc3cc(O)c(O)cc3s2)cc1 | 0.81
CC(=O)Nc1ccc2cc(S(=O)(=O)N3CCC[C@@H]3C(=O)Nc3nc4cc(O)c(O)cc4s3)ccc2c1 | 1.35
COc1ccc(S(=O)(=O)N2CCC[C@H]2C(=O)Nc2nc3cc(O)c(O)cc3s2)cc1 | 1.32
Cc1ccc(S(=O)(=O)N2CCC[C@@H]2C(=O)Nc2nc3cc(O)c(O)cc3s2)cc1 | 1.32
O=C(Nc1nc2cc(O)c(O)cc2s1)[C@@H]1CCCN1S(=O)(=O)c1ccc(-c2ccccc2)cc1 | 3.17
O=C(Nc1nc2cc(O)c(O)cc2s1)[C@H]1CCCN1S(=O)(=O)c1ccc([N+](=O)[O-])cc1 | 0.32
Cc1ccc(S(=O)(=O)N2CCC(C(=O)Nc3nc4cc(O)c(O)cc4s3)CC2)cc1 | 5.95
O=C(Nc1nc2cc(O)c(O)cc2s1)[C@H]1CCCN1S(=O)(=O)c1ccc(-c2ccccc2)cc1 | 2.47
O=C(Nc1nc2cc(O)c(O)cc2s1)[C@H]1CCCN1S(=O)(=O)c1ccc(Cl)cc1 | 1.4
O=C(Nc1nc2cc(O)c(O)cc2s1)[C@@H]1CCCN1S(=O)(=O)c1cccc([N+](=O)[O-])c1 | 1.78
Cc1ccc(S(=O)(=O)N2CCC[C@H]2C(=O)Nc2nc3cc(O)c(O)cc3s2)cc1 | 2.32
Cc1ccc(S(=O)(=O)Nc2ccccc2C(=O)Nc2nc3cc(O)c(O)cc3s2)cc1 | 6.43
Cc1ccc(S(=O)(=O)N2CCCC[C@H]2C(=O)Nc2nc3cc(O)c(O)cc3s2)cc1 | 0.51
O=C(Nc1nc2ccc([N+](=O)[O-])cc2s1)[C@H]1CCCN1C(=O)c1ccccc1 | 21.9
O=C(Nc1nc2cc(O)c(O)cc2s1)[C@@H]1CCCN1S(=O)(=O)c1ccc([N+](=O)[O-])cc1 | 0.93

System: A549
Test: Cytotoxicity against human A549 cells assessed as reduction in cell viability up to 5 uM by Presto blue cell viability reagent based assay

SMILES | Activity
Cc1ccc(S(=O)(=O)N2CCC[C@@H]2C(=O)Nc2nc3cc(O)c(O)cc3s2)cc1 | Non-Toxic
Cc1ccc(S(=O)(=O)N2CCC[C@H]2C(=O)Nc2nc3cc(O)c(O)cc3s2)cc1 | Non-Toxic

Biological target: T1, Nonstructural protein 3
Test: as §2, with “Non-competitive inhibition” for “Inhibition”, “using 50 to 200 uM” for “using”, “assay based Dixon plot analysis” for “assay”

SMILES | IC50 [µM]
Cc1ccc(S(=O)(=O)Nc2ccccc2C(=O)Nc2nc3cc(O)c(O)cc3s2)cc1 | 5.36

System: not listed separately
Test: Drug level in rat liver microsomes treated with (S)-N-(5,6-Dimethoxybenzo[d]thiazol-2-yl)-1-tosylpyrrolidine-2-carboxamide assessed as compound formation in presence of NADPH generating system by LC-MS/MS analysis
Type: ADME, Microsome

SMILES | Drug uptake
Cc1ccc(S(=O)(=O)N2CCC[C@@H]2C(=O)Nc2nc3cc(O)c(O)cc3s2)cc1 | Active
Cc1ccc(S(=O)(=O)N2CCC[C@H]2C(=O)Nc2nc3cc(O)c(O)cc3s2)cc1 | Active
